We go through nine compounds from EP4745137A1 (Gluetacs Therapeutics (Shanghai) Co., Ltd., priority 2023, dated 2025).

The target in assay [1] is T1, IKZF3 (Homo sapiens, UniProt Q96SW2+Q9UKT9).
T1 construct: endogenous in cells; host or cells: hPBMCs (Milecell Biotechnologies)
Put plainly: Western-blot assay of substrate protein degradation in hPBMCs, IKZF3. Particulars: 24 hours of compound treatment, 50 nM and 500 nM tested (concentration behind the class not stated). The assay is classed as cell-based.

Assay [2] has as its target T2, IKZF2 (Homo sapiens, UniProt Q96SW2+Q9UKS7).
T2 construct: endogenous in cells; host or cells: hPBMCs (Milecell Biotechnologies)
Put plainly: Western-blot assay of substrate protein degradation in hPBMCs, IKZF2. The format is cell-based. Particulars: 24 hours of compound treatment, 50 nM and 500 nM tested (concentration behind the class not stated).

The target in assay [3] is T3, IKZF1 (Homo sapiens, UniProt Q13422+Q96SW2).
T3 construct: endogenous in cells; host or cells: hPBMCs (Milecell Biotechnologies)
Put plainly: Western-blot assay of substrate protein degradation in hPBMCs, IKZF1. Particulars: 24 hours of compound treatment, 50 nM and 500 nM tested (concentration behind the class not stated). The format is cell-based.

The target in assay [4] is T4, GSPT1 (Homo sapiens, UniProt P15170+Q96SW2).
T4 construct: endogenous in cells; host or cells: hPBMCs (Milecell Biotechnologies)
Put plainly: Western-blot assay of substrate protein degradation in hPBMCs, GSPT1. The assay is classed as cell-based. As to conditions: 24 hours of compound treatment, 50 nM and 500 nM tested (concentration behind the class not stated).

Assay [5] has as its target T5, WEE1 (Homo sapiens, UniProt P30291+Q96SW2).
T5 construct: endogenous in cells; host or cells: hPBMCs (Milecell Biotechnologies)
Put plainly: Western-blot assay of substrate protein degradation in hPBMCs, WEE1. The assay is classed as cell-based. As to conditions: 24 hours of compound treatment, 50 nM and 500 nM tested (concentration behind the class not stated).

Assay [6] deals with MV-4-11. The assay is described as follows: Tumor cell proliferation inhibition (CellTiter-Meiluncell Luminescent Cell Viability Assay), MV-4-11.
Experimental: The tumor cells used herein were cultured in a cell culture medium listed in table 2 at 37°C in an incubator with 5% CO2. Prior to experimentation, all cell lines used were correctly identified by STR profiling, and tested negative for mycoplasma contamination using a mycoplasma detection kit through routine screenings.
On the following day, the test compounds of the present disclosure were subjected to serial dilution. […] Subsequently, 0.5 µL of the test compound dilution was transferred into the 96-well plate containing the cells, with each well containing 100 µL of cell culture medium. […] Into the 96-well plate, the diluted test compounds and corresponding detection reagents were added, resulting in final test compound concentrations of 500 nM and 10 nM, respectively.
After the cells were treated with the compounds of the present disclosure for a specified period (the treatment durations were shown in Table 3), the cell viability assay reagent was added to the culture medium according to the kit's instructions to determine cell viability. […] All controls were treated using the same procedure as the compounds of the present disclosure. The growth inhibition curves for the compounds of the present disclosure were plotted using Prism GraphPad software, and the IC50 values were calculated therefrom.
Assay [7] deals with T6, CK1α (Homo sapiens, UniProt P48729+Q96SW2).
T6 construct: endogenous in cells; host or cells: hPBMCs (Milecell Biotechnologies)
Put plainly: Western-blot assay of substrate protein degradation in hPBMCs, CK1α. The format is cell-based. Particulars: 24 hours of compound treatment, 50 nM and 500 nM tested (concentration behind the class not stated).

The mark [8] stands for this setting: Homo sapiens, MV4-11, read-out: inhibitory activity (IC50, nM) against tumor cells proliferation, MV-4-11.

Where two headings read alike, the source gives them in different places.

T4 sequence (P15170 whole entry): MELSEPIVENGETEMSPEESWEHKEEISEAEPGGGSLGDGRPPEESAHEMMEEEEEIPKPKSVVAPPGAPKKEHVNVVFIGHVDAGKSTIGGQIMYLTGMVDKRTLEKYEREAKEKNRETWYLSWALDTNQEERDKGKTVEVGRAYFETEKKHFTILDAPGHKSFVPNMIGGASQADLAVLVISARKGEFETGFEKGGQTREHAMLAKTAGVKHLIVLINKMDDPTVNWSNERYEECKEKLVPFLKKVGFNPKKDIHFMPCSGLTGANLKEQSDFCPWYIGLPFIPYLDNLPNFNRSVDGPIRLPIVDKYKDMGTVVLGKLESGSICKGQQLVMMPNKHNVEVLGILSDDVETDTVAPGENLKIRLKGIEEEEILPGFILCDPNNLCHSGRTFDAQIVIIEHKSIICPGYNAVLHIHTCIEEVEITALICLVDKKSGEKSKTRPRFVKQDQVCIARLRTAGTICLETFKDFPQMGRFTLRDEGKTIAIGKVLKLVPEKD
T4 sequence (Q96SW2 whole entry): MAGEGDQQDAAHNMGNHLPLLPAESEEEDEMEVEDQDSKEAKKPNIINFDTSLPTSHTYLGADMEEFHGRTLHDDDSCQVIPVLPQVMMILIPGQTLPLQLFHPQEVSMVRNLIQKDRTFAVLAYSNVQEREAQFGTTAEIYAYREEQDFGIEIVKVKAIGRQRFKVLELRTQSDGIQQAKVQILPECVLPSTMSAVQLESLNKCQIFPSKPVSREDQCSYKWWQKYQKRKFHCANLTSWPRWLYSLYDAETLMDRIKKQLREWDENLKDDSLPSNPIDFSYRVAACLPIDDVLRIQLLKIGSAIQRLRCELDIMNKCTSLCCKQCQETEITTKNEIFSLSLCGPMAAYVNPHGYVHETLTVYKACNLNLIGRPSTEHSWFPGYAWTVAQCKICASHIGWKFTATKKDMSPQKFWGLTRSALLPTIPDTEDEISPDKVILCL
T4 sequence (Q16531 whole entry partner): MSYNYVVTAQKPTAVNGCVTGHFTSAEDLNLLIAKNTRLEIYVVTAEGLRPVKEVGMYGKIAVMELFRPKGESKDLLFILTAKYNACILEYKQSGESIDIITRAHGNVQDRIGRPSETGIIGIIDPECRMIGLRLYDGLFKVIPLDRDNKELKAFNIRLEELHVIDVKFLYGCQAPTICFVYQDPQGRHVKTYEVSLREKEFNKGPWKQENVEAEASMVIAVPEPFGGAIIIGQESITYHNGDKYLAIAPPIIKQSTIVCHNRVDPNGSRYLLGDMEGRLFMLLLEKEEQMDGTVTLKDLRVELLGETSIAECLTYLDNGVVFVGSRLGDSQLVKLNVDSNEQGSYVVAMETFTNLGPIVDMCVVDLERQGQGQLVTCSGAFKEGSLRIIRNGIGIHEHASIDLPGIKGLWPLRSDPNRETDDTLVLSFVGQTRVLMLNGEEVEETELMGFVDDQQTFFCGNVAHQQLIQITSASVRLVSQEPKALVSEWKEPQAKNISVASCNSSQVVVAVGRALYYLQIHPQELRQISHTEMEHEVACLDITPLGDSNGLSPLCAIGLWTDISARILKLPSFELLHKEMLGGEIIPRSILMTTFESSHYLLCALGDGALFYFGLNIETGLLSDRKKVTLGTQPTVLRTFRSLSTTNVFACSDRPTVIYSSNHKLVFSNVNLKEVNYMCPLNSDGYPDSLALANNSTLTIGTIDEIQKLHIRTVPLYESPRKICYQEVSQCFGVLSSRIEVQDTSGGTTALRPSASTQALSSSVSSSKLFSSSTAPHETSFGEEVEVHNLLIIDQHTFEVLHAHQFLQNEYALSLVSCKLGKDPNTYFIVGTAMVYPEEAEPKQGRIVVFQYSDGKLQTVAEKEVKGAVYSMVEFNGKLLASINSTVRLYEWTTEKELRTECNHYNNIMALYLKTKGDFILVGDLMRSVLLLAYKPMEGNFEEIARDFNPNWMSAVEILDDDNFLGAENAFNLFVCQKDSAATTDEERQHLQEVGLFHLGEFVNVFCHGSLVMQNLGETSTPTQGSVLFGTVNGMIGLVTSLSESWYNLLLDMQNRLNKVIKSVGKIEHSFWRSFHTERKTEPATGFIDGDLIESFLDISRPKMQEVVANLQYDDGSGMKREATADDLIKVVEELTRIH
T1 sequence (Q9UKT9 whole entry): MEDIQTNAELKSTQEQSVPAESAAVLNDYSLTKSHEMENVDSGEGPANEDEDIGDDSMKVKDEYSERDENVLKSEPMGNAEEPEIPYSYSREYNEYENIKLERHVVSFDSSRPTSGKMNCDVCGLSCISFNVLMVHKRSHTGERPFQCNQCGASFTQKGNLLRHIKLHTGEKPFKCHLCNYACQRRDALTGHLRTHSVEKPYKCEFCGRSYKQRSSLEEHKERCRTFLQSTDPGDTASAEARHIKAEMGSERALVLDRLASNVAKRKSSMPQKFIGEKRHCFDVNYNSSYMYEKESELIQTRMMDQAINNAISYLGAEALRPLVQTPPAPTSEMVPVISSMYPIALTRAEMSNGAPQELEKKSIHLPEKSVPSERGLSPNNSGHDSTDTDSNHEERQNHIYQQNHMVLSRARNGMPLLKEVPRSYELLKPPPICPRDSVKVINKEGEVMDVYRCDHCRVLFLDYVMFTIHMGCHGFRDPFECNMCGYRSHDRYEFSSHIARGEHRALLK
T1 sequence (Q96SW2 whole entry): as the sequence (Q96SW2 whole entry) above
T1 sequence (Q16531 whole entry partner): as the sequence (Q16531 whole entry partner) above
T3 sequence (Q13422 whole entry): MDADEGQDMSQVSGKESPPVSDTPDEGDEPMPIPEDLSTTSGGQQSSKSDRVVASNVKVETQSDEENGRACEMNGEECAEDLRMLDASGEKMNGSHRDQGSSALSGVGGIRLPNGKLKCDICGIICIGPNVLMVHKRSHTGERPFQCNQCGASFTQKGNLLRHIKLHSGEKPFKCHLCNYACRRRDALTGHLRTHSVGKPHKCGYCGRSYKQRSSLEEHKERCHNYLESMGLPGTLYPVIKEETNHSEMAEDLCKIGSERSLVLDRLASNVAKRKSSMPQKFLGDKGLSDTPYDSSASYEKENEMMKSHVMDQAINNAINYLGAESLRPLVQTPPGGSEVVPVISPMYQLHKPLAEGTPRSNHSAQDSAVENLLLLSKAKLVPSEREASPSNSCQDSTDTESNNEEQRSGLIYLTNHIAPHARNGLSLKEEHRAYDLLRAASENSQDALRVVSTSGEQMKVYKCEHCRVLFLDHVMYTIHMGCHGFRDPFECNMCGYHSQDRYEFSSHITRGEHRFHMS
T3 sequence (Q96SW2 whole entry): as the sequence (Q96SW2 whole entry) above
T3 sequence (Q16531 whole entry partner): as the sequence (Q16531 whole entry partner) above
T2 sequence (Q9UKS7 whole entry): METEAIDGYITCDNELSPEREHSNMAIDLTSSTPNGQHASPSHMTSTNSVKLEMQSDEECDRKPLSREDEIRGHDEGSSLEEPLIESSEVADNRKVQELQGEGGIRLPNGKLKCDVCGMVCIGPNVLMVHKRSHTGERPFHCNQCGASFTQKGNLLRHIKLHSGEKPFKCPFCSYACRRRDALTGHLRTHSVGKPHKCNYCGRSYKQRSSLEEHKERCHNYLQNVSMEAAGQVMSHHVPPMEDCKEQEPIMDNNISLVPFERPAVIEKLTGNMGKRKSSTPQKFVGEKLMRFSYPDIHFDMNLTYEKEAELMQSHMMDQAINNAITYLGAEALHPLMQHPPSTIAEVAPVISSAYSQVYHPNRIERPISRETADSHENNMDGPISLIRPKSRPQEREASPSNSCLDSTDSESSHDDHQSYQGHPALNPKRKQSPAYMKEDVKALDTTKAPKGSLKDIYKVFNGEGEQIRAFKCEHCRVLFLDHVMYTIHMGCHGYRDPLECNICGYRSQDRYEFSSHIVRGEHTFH
T2 sequence (Q96SW2 whole entry): as the sequence (Q96SW2 whole entry) above
T2 sequence (Q16531 whole entry partner): as the sequence (Q16531 whole entry partner) above
T5 sequence (P30291 whole entry): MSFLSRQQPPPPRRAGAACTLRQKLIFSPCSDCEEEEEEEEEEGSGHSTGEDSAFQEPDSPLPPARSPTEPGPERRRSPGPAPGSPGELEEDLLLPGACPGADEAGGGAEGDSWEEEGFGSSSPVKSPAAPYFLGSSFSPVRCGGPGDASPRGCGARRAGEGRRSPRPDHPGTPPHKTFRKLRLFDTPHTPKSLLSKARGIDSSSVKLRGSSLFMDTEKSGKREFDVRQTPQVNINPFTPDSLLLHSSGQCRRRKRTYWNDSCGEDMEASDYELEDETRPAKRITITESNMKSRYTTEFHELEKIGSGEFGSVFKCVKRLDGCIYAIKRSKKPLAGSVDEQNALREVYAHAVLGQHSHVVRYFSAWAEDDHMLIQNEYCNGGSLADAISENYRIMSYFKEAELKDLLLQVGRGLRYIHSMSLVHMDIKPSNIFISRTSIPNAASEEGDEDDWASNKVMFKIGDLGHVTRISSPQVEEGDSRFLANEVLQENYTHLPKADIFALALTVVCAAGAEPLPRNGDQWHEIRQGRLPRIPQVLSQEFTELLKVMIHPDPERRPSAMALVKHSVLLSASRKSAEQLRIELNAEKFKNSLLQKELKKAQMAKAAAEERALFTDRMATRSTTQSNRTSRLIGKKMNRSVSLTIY
T5 sequence (Q96SW2 whole entry): as the sequence (Q96SW2 whole entry) above
T5 sequence (Q16531 whole entry partner): as the sequence (Q16531 whole entry partner) above

`O=C1CCC(N2C(=O)c3ccc(CN4CCN(c5nsc6cc(F)ccc56)CC4)cc3C2=O)C(=O)N1` (stereo not shown) [GT-06631, 2-(2,6-dioxopiperidin-3-yl)-5-((4-(6-fluorobenzo[d]isothiazol-3-yl)piperazin-1-yl)methyl)isoindoline-1,3-dione]: in assay [1], the “IKZF3 substrate protein remaining %” value is given as “B (80%< substrate protein remaining %≤ 100%)”. For the same compound, in assay [2], the “IKZF2 substrate protein remaining %” value is recorded as “B (80%< substrate protein remaining %≤ 100%)”. Moreover, the “IKZF 1 substrate protein remaining %” value in assay [3] is recorded as “B (80%< substrate protein remaining %≤ 100%)”. Moreover, in assay [4], the “GSPT1 substrate protein remaining %” value is “A (0% ≤ substrate protein remaining % ≤ 80%)”. In assay [5], the “Weel substrate protein remaining %” value was “A (0% ≤ substrate protein remaining % ≤ 80%)”. The IC50 in assay [6] (setting [8]) lay within 100 to 500 nM. Further, the “CK1a substrate protein remaining %” value in assay [7] is reported as “A (0% ≤ substrate protein remaining % ≤ 80%)”.
For the compound `O=C1CCC(N2C(=O)c3ccc(CN4CC=C(c5ccnc(F)c5F)CC4)cc3C2=O)C(=O)N1` (stereo not shown) [GT-06614, 5-((2',3'-difluoro-3,6-dihydro-[4,4'-bipyridin]-1(2H)-yl)methyl)-2-(2,6-dioxopiperidin-3-yl)isoindoline-1,3-dione], the “IKZF3 substrate protein remaining %” value in assay [1] is listed as “B (80%< substrate protein remaining %≤ 100%)”. In assay [2], the “IKZF2 substrate protein remaining %” value was “B (80%< substrate protein remaining %≤ 100%)”. Further, the “IKZF 1 substrate protein remaining %” value in assay [3] is recorded as “B (80%< substrate protein remaining %≤ 100%)”. The “GSPT1 substrate protein remaining %” value in assay [4] is “A (0% ≤ substrate protein remaining % ≤ 80%)”. Moreover, in assay [5], the “Weel substrate protein remaining %” value is given as “B (80%< substrate protein remaining %≤ 100%)”. For the same compound, in assay [6] (setting [8]), the IC50 is 10 to 50 nM. In addition, the “CK1a substrate protein remaining %” value in assay [7] is “A (0% ≤ substrate protein remaining % ≤ 80%)”.
Regarding `O=C1CCC(N2C(=O)c3ccc(CN4CCN(c5ccnc(Cl)c5F)CC4)cc3C2=O)C(=O)N1` (stereo not shown) [GT-06620, 5-((4-(2-chloro-3-fluoropyridin-4-yl)piperazin-1-yl)methyl)-2-(2,6-dioxopiperidin-3-yl)isoindoline-1,3-dione], in assay [1], the “IKZF3 substrate protein remaining %” value is given as “A (0% ≤ substrate protein remaining % ≤ 80%)”. The “IKZF2 substrate protein remaining %” value in assay [2] is “B (80%< substrate protein remaining %≤ 100%)”. Besides, in assay [3], the “IKZF 1 substrate protein remaining %” value is on record as “B (80%< substrate protein remaining %≤ 100%)”. In addition, in assay [4], the “GSPT1 substrate protein remaining %” value is given as “A (0% ≤ substrate protein remaining % ≤ 80%)”. Further, the “Weel substrate protein remaining %” value in assay [5] is reported as “B (80%< substrate protein remaining %≤ 100%)”. Moreover, in assay [6] (setting [8]), the IC50 was 100 to 500 nM. In addition, in assay [7], the “CK1a substrate protein remaining %” value is reported as “B (80%< substrate protein remaining %≤ 100%)”.
Consider `O=C1CCC(N2C(=O)c3ccc(CN4CCN(c5nc(N6CCOCC6)nc6c5SCC6)CC4)cc3C2=O)C(=O)N1` (stereo not shown) [GT-06712, 2-(2,6-dioxopiperidin-3-yl)-5-((4-(2-morpholino-6,7-dihydrothieno[3,2-d]pyrimidin-4-yl)piperazin-1-yl)methyl)isoindoline-1,3-dione], for which, in assay [1], the “IKZF3 substrate protein remaining %” value is given as “B (80%< substrate protein remaining %≤ 100%)”. In addition, the “IKZF2 substrate protein remaining %” value in assay [2] is reported as “B (80%< substrate protein remaining %≤ 100%)”. Further, the “IKZF 1 substrate protein remaining %” value in assay [3] was “B (80%< substrate protein remaining %≤ 100%)”. In addition, the “GSPT1 substrate protein remaining %” value in assay [4] was “A (0% ≤ substrate protein remaining % ≤ 80%)”. The “Weel substrate protein remaining %” value in assay [5] is given as “B (80%< substrate protein remaining %≤ 100%)”. Also, the IC50 in assay [6] (setting [8]) lay within 100 to 500 nM. Moreover, the “CK1a substrate protein remaining %” value in assay [7] is recorded as “B (80%< substrate protein remaining %≤ 100%)”.
On to `O=C1CCC(N2C(=O)c3ccc(CN4CCN(c5ncncn5)CC4)cc3C2=O)C(=O)N1` (stereo not shown) [GT-06626, 5-((4-(1,3,5-triazin-2-yl)piperazin-1-yl)methyl)-2-(2,6-dioxopiperidin-3-yl)isoindoline-1,3-dione], for which the “IKZF3 substrate protein remaining %” value in assay [1] is “B (80%< substrate protein remaining %≤ 100%)”. Also, the “IKZF2 substrate protein remaining %” value in assay [2] is listed as “B (80%< substrate protein remaining %≤ 100%)”. In assay [3], the “IKZF 1 substrate protein remaining %” value is recorded as “B (80%< substrate protein remaining %≤ 100%)”. The “GSPT1 substrate protein remaining %” value in assay [4] is on record as “A (0% ≤ substrate protein remaining % ≤ 80%)”. Moreover, in assay [6] (read-out: inhibitory activity (IC50, nM) against tumor cells proliferation, MV-4-11), the IC50 was 50 to 100 nM.
In the case of `O=C1CCC(N2C(=O)c3ccc(CN4CCC(n5cnc6cc(F)ccc65)CC4)cc3C2=O)C(=O)N1` (stereo not shown) [GT-06638, 2-(2,6-dioxopiperidin-3-yl)-5-((4-(5-fluoro-1H-benzo[d]imidazol-1-yl)piperidin-1-yl)methyl)isoindoline-1,3-dione], in assay [1], the “IKZF3 substrate protein remaining %” value is “B (80%< substrate protein remaining %≤ 100%)”. The “IKZF2 substrate protein remaining %” value in assay [2] was “B (80%< substrate protein remaining %≤ 100%)”. Moreover, in assay [3], the “IKZF 1 substrate protein remaining %” value is “B (80%< substrate protein remaining %≤ 100%)”. Also, the “GSPT1 substrate protein remaining %” value in assay [4] was “A (0% ≤ substrate protein remaining % ≤ 80%)”. Besides, the “Weel substrate protein remaining %” value in assay [5] is “A (0% ≤ substrate protein remaining % ≤ 80%)”. Moreover, the IC50 in assay [6] (setting [8]) was in the range of 500 to 1000 nM. For the same compound, in assay [7], the “CK1a substrate protein remaining %” value was “A (0% ≤ substrate protein remaining % ≤ 80%)”.
As to `O=C1CCC(N2C(=O)c3ccc(CN4CCN(c5nc(N6CCOCC6)nc6ccsc56)CC4)cc3C2=O)C(=O)N1` (stereo not shown) [GT-06717, 2-(2,6-dioxopiperidin-3-yl)-5-((4-(2-morpholinothieno[3,2-d]pyrimidin-4-yl)piperazin-1-yl)methyl)isoindoline-1,3-dione], the “IKZF3 substrate protein remaining %” value in assay [1] was “B (80%< substrate protein remaining %≤ 100%)”. Besides, the “IKZF2 substrate protein remaining %” value in assay [2] was “B (80%< substrate protein remaining %≤ 100%)”. Besides, the “IKZF 1 substrate protein remaining %” value in assay [3] is “A (0% ≤ substrate protein remaining % ≤ 80%)”. In addition, the “GSPT1 substrate protein remaining %” value in assay [4] is reported as “A (0% ≤ substrate protein remaining % ≤ 80%)”. Further, the “Weel substrate protein remaining %” value in assay [5] is on record as “A (0% ≤ substrate protein remaining % ≤ 80%)”. Also, the IC50 in assay [6] (setting [8]) fell in the range of 10 to 50 nM. In addition, the “CK1a substrate protein remaining %” value in assay [7] is “B (80%< substrate protein remaining %≤ 100%)”.
As for `O=C1CCC(N2C(=O)c3ccc(CN4CCN(c5ncnc(Cl)c5Cl)CC4)cc3C2=O)C(=O)N1` (stereo not shown) [GT-06623, 5-((4-(5,6-dichloropyrimidin-4-yl)piperazin-1-yl)methyl)-2-(2,6-dioxopiperidin-3-yl)isoindoline-1,3-dione], in assay [6] (setting [8]), the IC50 is 100 to 500 nM.
With `O=C1CCC(N2C(=O)c3ccc(CN4CCC(N5CCc6cc(F)ccc65)CC4)cc3C2=O)C(=O)N1` (stereo not shown) [GT-06637, 2-(2,6-dioxopiperidin-3-yl)-5-((4-(5-fluoroindolin-1-yl)piperidin-1-yl)methyl)isoindoline-1,3-dione], the “IKZF3 substrate protein remaining %” value in assay [1] is “A (0% ≤ substrate protein remaining % ≤ 80%)”. Also, in assay [2], the “IKZF2 substrate protein remaining %” value is given as “A (0% ≤ substrate protein remaining % ≤ 80%)”. The “IKZF 1 substrate protein remaining %” value in assay [3] is listed as “A (0% ≤ substrate protein remaining % ≤ 80%)”. In addition, the “GSPT1 substrate protein remaining %” value in assay [4] is recorded as “A (0% ≤ substrate protein remaining % ≤ 80%)”. Further, in assay [5], the “Weel substrate protein remaining %” value was “A (0% ≤ substrate protein remaining % ≤ 80%)”. In assay [6] (setting [8]), the IC50 was in the range of 50 to 100 nM. The “CK1a substrate protein remaining %” value in assay [7] was “A (0% ≤ substrate protein remaining % ≤ 80%)”.
